Source: patent US9829499B2, “Method and related systems for use with a fluidics device” (SciKon Innovation, Inc., priority 2015, dated 2017)
Like-named read-outs stand apart in the source and are kept apart here.

Columns and labels:
cultured cells = assay: Viable cells by CellTiter-Glo, static plates versus fluidics device cultured cells treated over 7 and 9 days; assay type: cell-based
Text: Referring to FIG. 46, a comparison of static plates and fluidics device 100 cultured cells treated with acetaminophen (APAP) over 7 and 9 days is depicted. CellTiter-Glo was used to measure viable cells. Data is normalized to vehicle (DMSO) control.

HepG2 cells [1] = test system: HepG2 cells
Protocol: (§1) To compare the effects of flow on response of HepG2 cells to Tamoxifen, cells were treated in the wells of the fluidics device where the drug was applied either to the source well at two different rates (2× and 3×), or was applied directly to individual wells in the absence of flow (static). For each condition, HepG2 cells were seeded into the individual wells of the fluidics device at a density of 30,000 cells per well in 50 uL media. This density corresponded to approximately 60% confluence. […] HepG2 cells in a fluidics device were treated with increasing concentrations of Tamoxifen over time. 150 uM of Tamoxifen was infused into the source well of the fluidics device either 2 times per day (2×) or three times per day (3×). Two acellular rows were infused with 1 uM Fluorscein to enable calculation of absolute concentration at any given time. The reagent CellTox™ Green was used to monitor cellular toxicity. Area under the curve values for each timepoint were obtained and plotted against effect expressed as a % maximum of (treated/control). Data was pooled together to obtain a single plot. EC50 values were calculated by a Sigmoid EMax model in PKSolver.
(§2) For the 2× and 3× experiment, to utilize Fluorescein as a standard for concentration, rows A and B remained acellular. After acclimating one day, media was changed to media containing a 1:2000 dilution of CellTox™ Green using volume of 100 uL per well. 400 uL of CellTox™ Green containing media was also added to the source well. Fluidic connections were allowed to form and stabilize for 30 minutes at 37° C. in a humidified incubator. Once fluid connections in each row was confirmed, 200 uL of media containing CellTox™ Green with either 150 uM Tamoxifen in 0.1% DMSO or 0.1% DMSO alone was added to the source well. To rows A&B, 200 uL of 1 uM Fluorescein in 0.1% DMSO was added to the source well. For all conditions, fluorescence was monitored using a Tecan Infinite Pro M1000 multimode plate reader optimized for Z-heights focal plane. For the 2× and 3× plates, media flow was maintained by syphoning 100 uL from well 11 and applying 100 uL fresh dosing solution to the source well at cadence corresponding to twice pre day (2×) or three times per day (3×).
(§3) For static fluid conditions, after seeding, cells acclimated for one day and then media was changed to 50 uL of media containing the noted concentration of Tamoxifen in 0.1% DMSO or 0.1% DMSO alone. Incubation proceeded for 24 hours where analysis of fluorescence determined the degree of cell death in each well. Nine replicates of each concentration were averaged.
(§4) For determining the concentration at any given time in the 2× and 3× flow plates, the RFU values obtained from the a-cellular Fluorescein control rows were averaged for each column and an actual Fluorescein concentration was determined using the Fluorescein Standard curve (see FIG. 33). The starting concentration of Fluorescein was 1 uM and the starting concentration of Tamoxifen was 150 uM therefore, the amount of fluorescein in each well was multiplied by 150 to obtain the corresponding concentration of Tamoxifen. The area under the curve (AUC) for each timepoint was obtained by multiplying the concentration value by the time in hours since the last time point using the AUCt function in PKSolver. For static conditions, the concentration was constant for the entire treatment time, therefore to obtain AUC the concentration was multiplied by 24 hours. […]

HepG2 cells [2] = assay: Cytotoxicity of HepG2 cells with CellTox Green, fluidics device (flow) versus static culture, EC50 based on AUC exposure
Protocol: as §1, §2, §3, §4

| SMILES | toxicity (viable cells, normalized to vehicle control) (cultured cells; fluidics device, Day 7) | toxicity (viable cells, normalized to vehicle control) (cultured cells; fluidics device, Day 9) | toxicity (viable cells, normalized to vehicle control) (cultured cells; static plate, Day 9, 2.5 mM) | toxicity (viable cells, normalized to vehicle control) (cultured cells; static plate, Day 9, highest concentration 5 mM) | toxicity (viable cells, normalized to vehicle control) (cultured cells; static plates, Day 7) | Observed EC-50 in downstream wells versus expected when using standard static culture methods (HepG2 cells [1]) | what the observed EC50 suggests (effect of metabolism on cytotoxicity) (HepG2 cells [1]) | sensitivity of HepG2 cells in the flow system relative to static systems (comparison of AUC EC-50s) (HepG2 cells [2]; CellTox Green, flow system less sensitive than static) | Observed EC-50 in downstream wells versus expected when using standard static culture methods (HepG2 cells [2]; fluidics device downstream wells) | what the observed EC50 suggests (effect of metabolism on cytotoxicity) (HepG2 cells [2]; fluidics device downstream wells versus static) |
| --- | --- | --- | --- | --- | --- | --- | --- | --- | --- | --- |
| CC(=O)Nc1ccc(O)cc1 [APAP, Acetaminophen] | downstream cell death effect | More pronounced downstream metabolite effect | marginal effect | obvious cell death | marginally detectable only at highest concentration | different from expected | bio-activation of a toxic intermediate | – | – | – |
| CC/C(=C(\c1ccccc1)c1ccc(OCCN(C)C)cc1)c1ccccc1 [Tamoxifen] | – | – | – | – | – | – | – | approximately 4 fold | different from expected | deactivation |
